Key:
Assay in all cases: relative viability (nuclei count vs DMSO), 5 days (fraction); higher = more cells survive
[1] = compound: CCn1c(-c2nonc2N)nc2c(C#CC(C)(C)O)ncc(OC[C@H]3CCCNC3)c21 + CCNC(=O)c1noc(-c2cc(C(C)C)c(O)cc2O)c1-c1ccc(CN2CCOCC2)cc1 [Luminespib] (partner 0.01 µM)
Summary of the method: (§1)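 Cells from lung cancer lines were seeded into 1536-well plates and, one day later, dosed by pin tool. Treatments were either a single drug or a fixed dose of an anchor drug with five library-drug doses (not always all listed) in √10 steps. After 5 days, nuclei were stained in a one-step fixation (final 0.05% Triton X-100, 1% formaldehyde, 1 ug/ml Hoechst) and counted on 4× images, and relative viability is the treated-to-vehicle nuclei ratio, as the median of duplicate plates.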

[2] = compound: CCOC1=CC=CC=C1N=NC2=C(NN(C2=O)C3=NC(=CS3)C4=CC=CC=C4)C [BAM7] + CS(=O)(=O)CCNCc1ccc(-c2ccc3ncnc(Nc4ccc(OCc5cccc(F)c5)c(Cl)c4)c3c2)o1 [Lapatinib] (partner 2 µM)
Summary of the method: as §1

[3] = compound: CCOC1=CC=CC=C1N=NC2=C(NN(C2=O)C3=NC(=CS3)C4=CC=CC=C4)C [BAM7] + CC1(C)CCC(c2ccc(Cl)cc2)=C(CN2CCN(c3ccc(C(=O)NS(=O)(=O)c4ccc(N[C@H](CCN5CCOCC5)CSc5ccccc5)c(S(=O)(=O)C(F)(F)F)c4)cc3)CC2)C1 [Navitoclax] (partner 0.5 µM)
Summary of the method: as §1

[4] = compound: CCn1c(-c2nonc2N)nc2c(C#CC(C)(C)O)ncc(OC[C@H]3CCCNC3)c21 + Cc1nc(Nc2ncc(C(=O)Nc3c(C)cccc3Cl)s2)cc(N2CCN(CCO)CC2)n1 [Dasatinib] (partner 0.075 µM)
Summary of the method: as §1

Row | Cell Line | relative viability ([1]; first compound 0.01 µM) | relative viability ([1]; first compound 0.03162 µM) | relative viability ([1]; first compound 0.1 µM) | relative viability ([1]; first compound 0.3162 µM) | relative viability ([1]; first compound 1 µM) | relative viability ([2]; first compound 0.5 µM) | relative viability ([2]; first compound 5 µM) | relative viability ([2]; first compound 15.81 µM) | relative viability ([2]; first compound 50 µM) | relative viability ([3]; first compound 0.5 µM) | relative viability ([3]; first compound 5 µM) | relative viability ([3]; first compound 15.81 µM) | relative viability ([3]; first compound 50 µM) | relative viability ([4]; first compound 0.01 µM) | relative viability ([4]; first compound 0.03162 µM) | relative viability ([4]; first compound 0.1 µM) | relative viability ([4]; first compound 0.3162 µM) | relative viability ([4]; first compound 1 µM)
1 | NCI-H1915 | 0.713 | 0.898 | 0.741 | 0.755 | 0.724 | 1.02 | 1.09 | 0.911 | 1.04 | 0.756 | 0.776 | 0.803 | 0.807 | 0.295 | 0.309 | 0.324 | 0.302 | 0.368
2 | NCI-H1793 | 0.24 | 0.237 | 0.212 | 0.189 | 0.233 | 0.8 | 0.636 | 0.64 | 0.93 | 0.401 | 0.565 | 0.437 | 0.411 | 0.361 | 0.406 | 0.399 | 0.359 | 0.421
3 | NCI-H2023 | 0.636 | 0.981 | 0.664 | 0.67 | 0.498 | 1.05 | 0.751 | 0.737 | 1.09 | 1.04 | 0.888 | 0.886 | 0.982 | 0.454 | 0.572 | 0.492 | 0.388 | 0.344
4 | COR-L 105 | 0.621 | 0.868 | 0.709 | 0.775 | 0.923 | 0.357 | 0.355 | 0.382 | 0.44 | 0.825 | 0.664 | 0.784 | 0.826 | 0.365 | 0.326 | 0.357 | 0.353 | 0.287
5 | RERF-LC-KJ | 1.12 | 1.31 | 1.27 | 1.19 | 1.1 | 0.868 | 0.815 | 0.802 | 0.791 | 0.908 | 0.805 | 0.907 | 0.847 | 0.708 | 0.815 | 0.748 | 0.678 | 0.565
6 | LXF-289 | 0.604 | 0.822 | 0.627 | 0.617 | 0.701 | 0.947 | 0.951 | 0.913 | 0.851 | 0.96 | 1.04 | 0.93 | 0.907 | 0.249 | 0.223 | 0.205 | 0.234 | 0.187
7 | PC-14 | 0.173 | 0.112 | 0.158 | 0.107 | 0.148 | 0.334 | 0.324 | 0.309 | 0.351 | 1.05 | 1.09 | 1 | 0.938 | 0.243 | 0.292 | 0.28 | 0.237 | 0.301
8 | NCI-H1666 | 0.948 | 0.933 | 1.05 | 0.959 | 1.04 | 0.47 | 0.7 | 0.564 | 0.754 | 0.938 | 1.11 | 0.912 | 0.858 | 0.847 | 0.99 | 0.833 | 0.819 | 0.771
9 | NCI-H2085 | 0.417 | 0.382 | 0.492 | 0.42 | 0.463 | 0.764 | 0.612 | 0.74 | 0.881 | 1.13 | 1.24 | 1.02 | 1.21 | 0.21 | 0.272 | 0.278 | 0.255 | 0.228
10 | NCI-H1734 | 0.189 | 0.194 | 0.177 | 0.145 | 0.219 | 1.1 | 1.23 | 0.974 | 1.11 | 0.877 | 0.948 | 0.861 | 0.771 | 0.473 | 0.475 | 0.414 | 0.407 | 0.38
11 | NCI-H2126 | 0.85 | 0.914 | 0.892 | 0.859 | 0.961 | 0.726 | 0.664 | 0.743 | 0.755 | 0.841 | 0.857 | 0.86 | 0.849 | 0.587 | 0.468 | 0.597 | 0.579 | 0.677
12 | EMC-BAC-2 | 1.18 | 1.17 | 1.23 | 1.18 | 1.21 | 0.943 | 0.936 | 0.962 | 0.968 | 1.2 | 1.23 | 1.08 | 1.17 | 0.302 | 0.29 | 0.333 | 0.297 | 0.34
13 | NCI-H1993 | 0.84 | 0.728 | 0.739 | 0.645 | 0.686 | 0.76 | 0.915 | 0.763 | 0.906 | 0.819 | 0.899 | 0.739 | 0.813 | 0.759 | 0.531 | 0.603 | 0.473 | 0.527
14 | NCI-H520 | 0.188 | 0.222 | 0.188 | 0.238 | 0.182 | 0.804 | 0.904 | 0.93 | 1.03 | 1.09 | 1.2 | 1.11 | 1.18 | 0.223 | 0.2 | 0.181 | 0.159 | 0.134
15 | NCI-H647 | 0.327 | 0.177 | 0.203 | 0.127 | 0.193 | 1.06 | 0.926 | 1.01 | 1.06 | 1.11 | 1.16 | 0.899 | 1.14 | 0.193 | 0.224 | 0.184 | 0.152 | 0.164
16 | NCI-H1792 | 0.593 | – | 0.566 | 0.416 | 0.47 | 0.963 | 0.914 | 1.09 | 0.842 | 0.621 | 0.691 | 0.783 | 0.61 | 0.758 | – | 0.818 | 0.705 | 0.897
17 | SK-LU-1 | 0.22 | 0.2 | 0.211 | 0.22 | 0.215 | 0.78 | 1.02 | 0.846 | 0.897 | 0.487 | 1.01 | 0.8 | 0.827 | 0.191 | 0.161 | 0.199 | 0.188 | 0.158
18 | NCI-H1650 | 0.187 | 0.202 | 0.182 | 0.199 | 0.206 | 0.758 | 0.726 | 0.806 | 0.855 | 1.46 | 1.26 | 1.15 | 1.15 | 0.338 | 0.302 | 0.297 | 0.266 | 0.25

From the supplement of paper PMC10307832
